Data as given in ChEMBL document CHEMBL5335793, “PITB: A high affinity transthyretin aggregation inhibitor with optimal pharmacokinetic properties” (Eur J Med Chem, 2023).

Tests used:
Format in all cases: ADME, organism-based
Conditions in all cases: in vivo
[1] = Drug metabolism in CD-1 mouse assessed as 3-O-methylM23 formation by measuring Cmax at 1 mg/kg, iv measured for 24 hrs by UPLC-MS/MS analysis; set-up: dose 1 mg/kg, time 24 hrs, route iv
[2] = Half life in CD-1 mouse at 1 mg/kg, iv measured for 24 hrs by UPLC-MS/MS analysis
[3] = AUC (0 to 24 hrs) in CD-1 mouse at 1 mg/kg, iv by UPLC-MS/MS analysis; set-up: time 24 hrs, dose 1 mg/kg, route iv
[4] = Cmax in CD-1 mouse at 1 mg/kg, iv measured for 24 hrs by UPLC-MS/MS analysis; set-up: dose 1 mg/kg, time 24 hrs, route iv
[5] = Drug metabolism in CD-1 mouse assessed as 3-O-methylM23 formation by measuring AUC (0 to 24 hrs) at 1 mg/kg, iv by UPLC-MS/MS analysis; set-up: time 24 hrs, dose 1 mg/kg, route iv
[6] = Drug metabolism in CD-1 mouse assessed as 3-O-methylM23 formation by measuring half life at 1 mg/kg, iv measured for 24 hrs by UPLC-MS/MS analysis
[7] = Tmax in CD-1 mouse at 10 mg/kg, po measured for 24 hrs by UPLC-MS/MS analysis
[8] = Cmax in CD-1 mouse at 10 mg/kg, po measured for 24 hrs by UPLC-MS/MS analysis; set-up: dose 10 mg/kg, time 24 hrs, route po
[9] = AUC (0 to 24 hrs) in CD-1 mouse at 10 mg/kg, po measured for 24 hrs by UPLC-MS/MS analysis; set-up: time 24 hrs, dose 10 mg/kg, route po
[10] = Half life in CD-1 mouse at 10 mg/kg, po measured for 24 hrs by UPLC-MS/MS analysis
[11] = Drug metabolism in CD-1 mouse assessed as 3-O-methylM23 formation by measuring Tmax at 10 mg/kg, po measured for 24 hrs by UPLC-MS/MS analysis
[12] = Drug metabolism in CD-1 mouse assessed as 3-O-methylM23 formation by measuring Cmax at 10 mg/kg, po measured for 24 hrs by UPLC-MS/MS analysis; set-up: time 24 hrs, dose 10 mg/kg, route po
[13] = Drug metabolism in CD-1 mouse assessed as 3-O-methylM23 formation by measuring AUC (0 to 24 hrs) at 10 mg/kg, po by UPLC-MS/MS analysis; set-up: time 24 hrs, dose 10 mg/kg, route po
[14] = Drug metabolism in CD-1 mouse assessed as 3-O-methylM23 formation by measuring half life at 10 mg/kg, po measured for 24 hrs by UPLC-MS/MS analysis

**Q.** Which results are given for O=C(c1cc(O)cc(F)c1)c1cc(O)c(O)c([N+](=O)[O-])c1?
**A.** Cmax [1]: 555.3 ng/mL; half-life [2]: 1.5 h; AUC(0-t) at 24 h [3]: 761 ng·h/mL; Cmax [4]: 1360 ng/mL; AUC [5]: 462.1 ng·h/mL; t1/2 [6]: 2.7 h; Tmax [7]: < 0.25 h; Cmax [8]: 744 ng/mL; AUC(0-t) at 24 h [9]: 866 ng·h/mL; half-life [10]: 0.9 h; Tmax [11]: < 0.25 h; Cmax [12]: 96.7 ng/mL; AUC [13]: 209.1 ng·h/mL; t1/2 [14]: 2.8 h
